{
  "source": "ChEMBL document CHEMBL1212786",
  "about": "(Antimicrob Agents Chemother, 2010)",
  "key": {"[1]": {"assay": "Cytotoxicity against human Huh7ET cells assessed as lactate dehydrogenase release up to 10 uM after 72 hrs", "assay_type": "cell-based", "conditions": "huh-7, 72 h"}, "[2]": {"assay": "Apparent volume of distribution in monkey at 1 mg/kg, iv after 24 hrs by LC/MS/MS analysis", "assay_type": "ADME, organism-based, Macaca mulatta", "parameters": "dose 1 mg/kg, route intravenous", "conditions": "rhesus monkey, in vivo, read-out: Vz"}, "[3]": {"assay": "Cmax in monkey at 15 mg/kg, po after 24 hrs by LC/MS/MS analysis", "assay_type": "ADME, organism-based, Macaca mulatta", "parameters": "dose 15 mg/kg, route oral", "conditions": "rhesus monkey, in vivo"}, "[4]": {"assay": "Cmax in Sprague-Dawley rat at 10 mg/kg, po after 24 hrs by LC/MS/MS analysis", "assay_type": "ADME, organism-based", "parameters": "dose 10 mg/kg, route oral", "conditions": "in vivo"}, "[5]": {"assay": "Apparent elimination half life Sprague-Dawley rat at 20 mg/kg, po after 24 hrs by LC/MS/MS analysis", "assay_type": "ADME, organism-based", "parameters": "dose 20 mg/kg, route oral", "conditions": "in vivo"}, "[6]": {"assay": "Apparent elimination half life in monkey at 7.5 mg/kg, po after 24 hrs by LC/MS/MS analysis", "assay_type": "ADME, organism-based, Macaca mulatta", "parameters": "dose 7.5 mg/kg, route oral", "conditions": "rhesus monkey, in vivo"}, "Hepatitis C virus": {"test_system": "Hepatitis C virus", "assay": "microbe, parasite or virus in culture", "conditions": "Huh-7, 120 h", "description": "Antiviral activity against Hepatitis C virus infected in human Huh7ET cells assessed as inhibition of viral replication after 120 hrs by RT-PCR analysis"}},
  "data": [
    {"smiles": "C/C=C/C[C@@H](C)[C@@H](O)[C@H]1C(=O)N[C@@H](CC)C(=O)N(C)C(SCCN(C)C)C(=O)N(C)[C@@H](CC(C)(C)O)C(=O)N[C@@H](C(C)C)C(=O)N(C)[C@@H](CC(C)C)C(=O)N[C@@H](C)C(=O)N[C@H](C)C(=O)N(C)[C@@H](CC(C)C)C(=O)N(C)[C@@H](CC(C)C)C(=O)N(C)[C@@H](C(C)C)C(=O)N1C", "note": "(single isomer, unassigned) [SCY 635]", "values": [
      {"measurement": "Activity", "setting": "[1]", "result": "Non-toxic"},
      {"measurement": "Vd", "setting": "[2]", "result": 1.02, "unit": "L/kg"},
      {"measurement": "Cmax", "setting": "[3]", "result": 2430, "unit": "ng/mL"},
      {"measurement": "Cmax", "setting": "[4]", "result": 1400, "unit": "ng/mL"},
      {"measurement": "half-life", "setting": "[5]", "result": 23.8, "unit": "h"},
      {"measurement": "half-life", "setting": "[6]", "result": 33.1, "unit": "h"},
      {"measurement": "EC50", "setting": "Hepatitis C virus", "result": 150, "unit": "nM"}
    ]}
  ]
}
